Drawing on ChEMBL document CHEMBL1201862, “PubChem BioAssay data set” (2004), this text covers EC50, IC50 and AC50 for 31 compounds.

Activity calls are given as the source filed them. Where only a bound is given, the exact number is not on record here.

One experiment deals with Streptococcus. The experiment is described as follows: Group A Streptococcus viability loss, dose response, counter-screen for streptokinase expression inhibitor project, luminescence, BacTiterGlo (AID 1915).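 Further: potency for reduction of bacterial viability or growth.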 Format: functional, organism-based.
Experiment [1] deals with Streptococcus sp. 'group A'. In words: growth inhibition of control SK(-) GAS strain, dose response, counter-screen for streptokinase expression inhibitor project, luminescence, kanamycin, BacTiterGlo, confirmation (AID 1900). The class given is functional, organism-based.
Another experiment is described as follows: cells. The class given is functional.
The target in experiment [2] is T1, Replicative DNA helicase DnaB (Mycobacterium tuberculosis, UniProt P9WMR3).
T1 sequence (P9WMR3 whole entry): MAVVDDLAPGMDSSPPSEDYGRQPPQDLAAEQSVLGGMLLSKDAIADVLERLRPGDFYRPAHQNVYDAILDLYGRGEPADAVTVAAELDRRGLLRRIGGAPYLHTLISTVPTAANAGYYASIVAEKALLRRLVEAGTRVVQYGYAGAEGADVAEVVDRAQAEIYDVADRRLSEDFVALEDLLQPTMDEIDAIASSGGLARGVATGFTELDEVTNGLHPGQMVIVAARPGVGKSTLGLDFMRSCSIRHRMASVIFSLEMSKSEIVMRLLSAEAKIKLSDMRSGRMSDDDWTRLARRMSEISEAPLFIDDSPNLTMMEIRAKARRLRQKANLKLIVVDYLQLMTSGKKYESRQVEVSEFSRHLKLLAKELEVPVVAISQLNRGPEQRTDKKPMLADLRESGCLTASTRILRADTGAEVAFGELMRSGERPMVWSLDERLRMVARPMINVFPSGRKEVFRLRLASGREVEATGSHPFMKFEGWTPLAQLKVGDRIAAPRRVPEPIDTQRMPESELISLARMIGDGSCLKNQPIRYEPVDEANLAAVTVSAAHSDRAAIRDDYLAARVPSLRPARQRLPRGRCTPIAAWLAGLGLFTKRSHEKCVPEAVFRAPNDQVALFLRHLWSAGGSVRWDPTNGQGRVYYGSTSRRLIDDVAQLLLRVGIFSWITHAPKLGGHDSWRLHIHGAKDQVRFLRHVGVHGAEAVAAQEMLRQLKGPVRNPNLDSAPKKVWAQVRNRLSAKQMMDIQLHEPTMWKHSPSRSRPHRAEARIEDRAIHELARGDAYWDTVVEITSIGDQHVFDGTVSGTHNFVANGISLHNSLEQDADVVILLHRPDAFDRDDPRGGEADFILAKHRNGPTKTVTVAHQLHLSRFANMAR
In words: DnaB intein splicing inhibitors, dose response, biochemical, cell-free fluorescence (AID 449749). The class given is functional.

Another experiment addresses T2, Protein RecA (Mycobacterium tuberculosis, UniProt P9WHJ3).
T2 sequence (P9WHJ3 whole entry): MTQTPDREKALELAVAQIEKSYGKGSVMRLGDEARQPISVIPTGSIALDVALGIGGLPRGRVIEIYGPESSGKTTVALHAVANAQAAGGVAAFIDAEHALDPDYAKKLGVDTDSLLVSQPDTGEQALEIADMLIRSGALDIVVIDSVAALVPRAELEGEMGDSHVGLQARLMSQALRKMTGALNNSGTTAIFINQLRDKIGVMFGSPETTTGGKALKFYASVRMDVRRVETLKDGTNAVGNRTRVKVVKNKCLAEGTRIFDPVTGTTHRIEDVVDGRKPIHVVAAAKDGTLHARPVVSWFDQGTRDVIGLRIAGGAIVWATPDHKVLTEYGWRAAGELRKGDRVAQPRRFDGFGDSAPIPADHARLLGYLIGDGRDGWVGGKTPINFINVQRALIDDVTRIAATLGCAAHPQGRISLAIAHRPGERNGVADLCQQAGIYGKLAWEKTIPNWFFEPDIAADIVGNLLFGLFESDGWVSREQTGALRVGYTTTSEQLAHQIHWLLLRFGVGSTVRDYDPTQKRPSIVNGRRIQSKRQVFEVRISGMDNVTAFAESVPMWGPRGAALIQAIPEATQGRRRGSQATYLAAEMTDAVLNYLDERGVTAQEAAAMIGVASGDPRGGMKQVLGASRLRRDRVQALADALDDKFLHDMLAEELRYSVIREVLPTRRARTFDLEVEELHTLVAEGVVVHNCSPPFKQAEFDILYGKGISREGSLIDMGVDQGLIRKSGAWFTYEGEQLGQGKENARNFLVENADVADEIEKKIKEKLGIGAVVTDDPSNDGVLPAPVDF
The experiment is described as follows: Fluorescence Cell-Free Homogeneous Dose Retest to Identify Inhibitors of RecA-Intein Splicing Activity. [Related pubchem assays (depositor defined):AID2097, AID2223, AID489010, AID492950]. The class given is functional.

The target of experiment [3] is T3, Rac GTPase-activating protein 1 (Homo sapiens, UniProt Q9H0H5).
T3 sequence (Q9H0H5 whole entry): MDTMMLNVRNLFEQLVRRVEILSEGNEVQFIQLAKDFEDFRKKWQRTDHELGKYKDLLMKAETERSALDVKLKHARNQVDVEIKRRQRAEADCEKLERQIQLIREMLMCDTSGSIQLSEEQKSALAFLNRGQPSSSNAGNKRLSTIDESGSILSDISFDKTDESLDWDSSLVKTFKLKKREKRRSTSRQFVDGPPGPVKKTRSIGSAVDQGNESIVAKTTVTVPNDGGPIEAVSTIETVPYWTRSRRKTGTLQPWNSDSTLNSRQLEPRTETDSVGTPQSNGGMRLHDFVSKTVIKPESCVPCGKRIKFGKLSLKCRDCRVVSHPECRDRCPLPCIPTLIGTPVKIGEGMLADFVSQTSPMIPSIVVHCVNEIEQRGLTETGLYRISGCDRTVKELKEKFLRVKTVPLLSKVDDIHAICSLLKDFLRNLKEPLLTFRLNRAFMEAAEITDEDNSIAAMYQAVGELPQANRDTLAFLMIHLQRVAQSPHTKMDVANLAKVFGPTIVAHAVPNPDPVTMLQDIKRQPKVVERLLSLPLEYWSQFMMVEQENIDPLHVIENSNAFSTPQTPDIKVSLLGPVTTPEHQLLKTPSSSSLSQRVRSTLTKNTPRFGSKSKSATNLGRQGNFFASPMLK
In words: MgcRacGAP GTPase-activating activity inhibitors, confirmation, biochemical, ADP Hunter fluorescence, primary and confirmatory (AID 624330). The class given is functional.

In experiment [4] the target is T4, Heat shock factor protein 1 (Mus musculus, UniProt P38532).
T4 sequence (P38532 whole entry): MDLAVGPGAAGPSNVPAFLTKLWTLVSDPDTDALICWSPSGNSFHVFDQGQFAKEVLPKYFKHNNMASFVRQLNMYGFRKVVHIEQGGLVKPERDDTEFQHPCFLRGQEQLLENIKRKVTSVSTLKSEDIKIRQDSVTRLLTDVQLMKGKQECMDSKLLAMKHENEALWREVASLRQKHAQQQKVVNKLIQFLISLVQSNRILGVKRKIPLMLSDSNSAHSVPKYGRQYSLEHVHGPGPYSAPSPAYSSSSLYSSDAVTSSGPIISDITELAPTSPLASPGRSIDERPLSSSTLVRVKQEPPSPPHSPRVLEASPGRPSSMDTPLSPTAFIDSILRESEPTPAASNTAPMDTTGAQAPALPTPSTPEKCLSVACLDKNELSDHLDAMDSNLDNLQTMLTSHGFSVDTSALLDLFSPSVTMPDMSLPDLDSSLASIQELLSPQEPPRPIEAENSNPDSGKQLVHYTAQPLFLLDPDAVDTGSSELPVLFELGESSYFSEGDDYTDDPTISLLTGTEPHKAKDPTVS
The experiment is described as follows: inhibition of MG132-induced HSE-luciferase signal, confirmation, cell-based, NIH3T3, luminescence, dose retest (AID 2382).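 Further: NIH3T3 fibroblasts with HSF1-driven luciferase reporter stressed by proteasome inhibitor MG132; luminescence from HSF1-driven luciferase expression after 8 hours of MG132 stress.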 The class given is functional.

The target of a further experiment is T5, Streptokinase A (Streptococcus pyogenes serotype M1, UniProt P10520).
T5 sequence (P10520 whole entry): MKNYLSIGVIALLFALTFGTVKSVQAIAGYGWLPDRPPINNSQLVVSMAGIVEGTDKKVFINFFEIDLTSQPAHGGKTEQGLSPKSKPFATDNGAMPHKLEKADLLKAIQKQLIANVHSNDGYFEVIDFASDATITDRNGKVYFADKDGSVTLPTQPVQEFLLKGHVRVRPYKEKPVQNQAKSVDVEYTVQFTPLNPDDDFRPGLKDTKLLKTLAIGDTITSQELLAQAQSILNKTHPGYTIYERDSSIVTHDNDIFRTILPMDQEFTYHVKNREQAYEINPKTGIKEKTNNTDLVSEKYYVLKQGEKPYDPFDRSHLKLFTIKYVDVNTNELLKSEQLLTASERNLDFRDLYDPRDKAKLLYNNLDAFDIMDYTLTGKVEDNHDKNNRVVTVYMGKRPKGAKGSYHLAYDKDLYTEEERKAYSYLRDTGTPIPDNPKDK
The experiment is described as follows: S. pyogenes streptokinase expression inhibitors, potency, dose response, plasminogen activation absorbance, OD405 (AID 1914).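 Further: secreted streptokinase activity via plasminogen activation per viability signal from cell pellet.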 Format: functional, Streptococcus pyogenes M1 GAS.

For the compound `Oc1cc(C(F)(F)F)nc2c(C(F)(F)F)cccc12`, the EC50 was 8.27 µM (active) in the experiment on Streptococcus and 2.62 µM (active) in experiment [1]. Also, the IC50 in “cells” is 50 µM (active).
As to `CC1=C(C)CC2(SC1)C(=O)N(c1ccccc1)N=C2N` (stereo not drawn), the AC50 in experiment [2] is 10.3 µM (active). At Protein RecA, the EC50 is 3.4 µM (active).
Consider `CCN1CCN(CC(O)COC(c2ccccc2)c2ccccc2C)CC1` (stereo not drawn), for which the IC50 in experiment [3] was 64.1 µM (active).
`COc1ccccc1NC1=C(Cl)C(=O)N(C2CCCCC2)C1=O`: the EC50 in experiment [4] is given as > 195 µM (not active).
Regarding `N#CC1=C(S)N(c2ccc(F)cc2)C(c2ccco2)NC1=O` (stereo not drawn), the IC50 in experiment [3] is 84.4 µM (active).
Regarding `CC(C)Oc1ccc(/C=C(/NC(=O)c2ccccc2)C(=O)NCCC(=O)O)cc1`, in experiment [4], the concentration giving a half-maximal response (EC50) is > 195 µM (not active).
`Cc1n[nH]c2c1C1(CCOCC1)C(C#N)=C(N)O2`: in experiment [2], the AC50 was 3.57 µM (active). Also, the EC50 at Protein RecA was 2.83 µM (active).
Regarding `CC(=O)Nc1ccc(N=Nc2ccc(O)cc2)cc1`, the IC50 in experiment [3] is 27.1 µM (active).
With `O=C1C(Cl)=C(N2CCCCC2)C(=O)N1c1ccccc1Cl`, in experiment [2], the AC50 is 4.64 µM (active). On Protein RecA, the EC50 was 2.45 µM (active).
Take `O=C(NCc1cccs1)c1ccccc1[N+](=O)[O-]`: in experiment [4], the EC50 is > 195 µM (not active).
For `CCS(=O)(=O)NC(C)C(c1cccs1)N1CCN(c2ccc(OC)cc2)CC1` (stereo not drawn), the IC50 in experiment [3] is 91.3 µM (active).
Consider `CCOC(=O)C(=O)NC12CC3CC(CC(C3)C1)C2`, for which the IC50 in the experiment “cells” is 44.5 µM (active).
Turning to `O=C(NC(=S)NCCC1=CCCCC1)c1cncc(Br)c1`, the EC50 in experiment [4] is on record as > 195 µM (not active).
With `O=C(OCc1cccc([N+](=O)[O-])c1)c1ccc2ccccc2n1`, in the experiment “cells”, the IC50 was 5.04 µM (active).
For the compound `CCCc1cc(=O)oc2cc(C)cc(OCC(=O)NCCCn3ccnc3)c12`, in experiment [4], the EC50 was > 195 µM (not active).
Turning to `CCOC(=O)c1cc(NCc2cccs2)ccc1N1CCOCC1`, the IC50 in experiment [3] was 93 µM (active).
As to `COc1ccc(CN2CCNC(=O)C2CC(=O)NC2CC(C)(C)CC(C)(C)C2)cc1OC` (stereo not drawn), the EC50 in experiment [4] is > 195 µM (not active).
Turning to `CCOC(=O)c1cc(-c2csc(COc3ccccc3Cl)n2)on1`, the IC50 in the experiment “cells” is 0.4 µM (active).
Consider `Cc1ccccc1C(=O)Nc1nnc(-c2ccco2)o1`, for which the IC50 in “cells” is 5.71 µM (active).
Regarding `CCN(CC)c1ccc(NC(=O)C2CCCC2)cc1`, the IC50 in experiment [3] was 63.5 µM (active).
Regarding `O=[N+]([O-])c1ccc(CN2CCN(c3ccccc3Cl)CC2)o1`, the IC50 in “cells” was 0.84 µM (active).
Turning to `O=[N+]([O-])c1ccc(SCCc2ccncc2)cc1`, in experiment [4], the EC50 was > 195 µM (not active).
For `Cc1ccc(C(=O)N/C(=C/c2ccco2)C(=O)Nc2cccc(C(=O)O)c2)cc1`, the EC50 in experiment [4] is on record as > 195 µM (not active).
For `O=S(=O)(N[C@H]1C[C@@H](NS(=O)(=O)OCC(Cl)(Cl)Cl)C2CCCCC21)OCC(Cl)(Cl)Cl` (stereo partly drawn), the AC50 in experiment [2] was 3.31 µM (active). Besides, the EC50 was 50.9 µM (active) at Protein RecA, 5.38 µM (active) in the experiment with Streptococcus, 2.45 µM (active) in experiment [1] and 1.7 µM (active) on Streptokinase A.
Consider `Cc1ccccc1-c1nc(CN(C)C(C)c2ccon2)c(C)o1` (stereo not drawn), for which the AC50 in experiment [2] is 3.11 µM (active). Besides, the EC50 on Protein RecA was 1.15 µM (active).
Consider `O=C(O)c1ccc([N+](=O)[O-])c2c1C(=O)c1ccccc1C2=O`, for which the AC50 in experiment [2] is 29 µM (active). Further, at Protein RecA, the EC50 was 6.78 µM (active).
On to `COc1cc(/C=N/NC(=O)CNC(=O)c2cccs2)ccc1O`, for which the IC50 in experiment [3] is 42.2 µM (active).
Take `O=C(Cc1cc(O)n[nH]1)N/N=C/c1cccc2ccccc12`: in experiment [2], the AC50 was 4.55 µM (active). The EC50 on Protein RecA was 0.694 µM (active).
In the case of `COc1ccc(OC)c(CN2CCN(Cc3ccc(OC)c(OC)c3OC)CC2)c1`, the IC50 in experiment [3] was 77.7 µM (active).
Still for that read-out and setting: as for `CCOc1cc(/C=N/NC(=O)c2ccc(NC(=O)C3CC3)cc2)ccc1O`, the figure is 72.4 µM (active).
Take `C/C(=N/NC(=O)c1ccncc1)C1=C(O)CC(C)(C)CC1=O`: the IC50 in the experiment “cells” was 5.71 µM (active).
